How the values were obtained:
Assay in all cases: relative viability (nuclei count vs DMSO), 5 days (fraction); higher = more cells survive
MK-8033 + Linsitinib = compound: Cn1cc(-c2cnc3ccc4ccc(CS(=O)(=O)NCc5ccccn5)cc4c(=O)c3c2)cn1 [MK-8033] + C[C@]1(O)C[C@@H](c2nc(-c3ccc4ccc(-c5ccccc5)nc4c3)c3c(N)nccn32)C1 [Linsitinib] (partner 1 µM)
Method in brief: (§1)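 The day after seeding in 1536-well plates, lung cancer cell lines were treated by pin tool with a single drug, or with a fixed anchor-drug dose together with five library-drug doses (not always all listed) in √10 steps. After 5 days, a combined fix-and-stain solution (final 0.05% Triton X-100, 1% formaldehyde, 1 ug/ml Hoechst) was added. Nuclei counted on 4× images gave relative viability as treated counts over vehicle counts, reported as the median of duplicate plates.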

Irinotecan + Palbociclib = compound: CCc1c2c(nc3ccc(OC(=O)N4CCC(N5CCCCC5)CC4)cc13)-c1cc3c(c(=O)n1C2)COC(=O)[C@]3(O)CC [Irinotecan] + CC(=O)c1c(C)c2cnc(Nc3ccc(N4CCNCC4)cn3)nc2n(C2CCCC2)c1=O [Palbociclib] (partner 0.5 µM)
Method in brief: as §1

Irinotecan + Vorinostat = compound: CCc1c2c(nc3ccc(OC(=O)N4CCC(N5CCCCC5)CC4)cc13)-c1cc3c(c(=O)n1C2)COC(=O)[C@]3(O)CC [Irinotecan] + O=C(CCCCCCC(=O)Nc1ccccc1)NO [Vorinostat] (partner 1 µM)
Method in brief: as §1

Irinotecan + Linsitinib = compound: CCc1c2c(nc3ccc(OC(=O)N4CCC(N5CCCCC5)CC4)cc13)-c1cc3c(c(=O)n1C2)COC(=O)[C@]3(O)CC [Irinotecan] + C[C@]1(O)C[C@@H](c2nc(-c3ccc4ccc(-c5ccccc5)nc4c3)c3c(N)nccn32)C1 [Linsitinib] (partner 1 µM)
Method in brief: as §1

| Cell Line | relative viability (MK-8033 + Linsitinib; first compound 0.02 µM) | relative viability (MK-8033 + Linsitinib; first compound 0.06325 µM) | relative viability (MK-8033 + Linsitinib; first compound 0.2 µM) | relative viability (MK-8033 + Linsitinib; first compound 0.6325 µM) | relative viability (MK-8033 + Linsitinib; first compound 2 µM) | relative viability (Irinotecan + Palbociclib; first compound 0.6325 µM) | relative viability (Irinotecan + Palbociclib; first compound 2 µM) | relative viability (Irinotecan + Palbociclib; first compound 6.325 µM) | relative viability (Irinotecan + Palbociclib; first compound 20 µM) | relative viability (Irinotecan + Vorinostat; first compound 0.6325 µM) | relative viability (Irinotecan + Vorinostat; first compound 2 µM) | relative viability (Irinotecan + Vorinostat; first compound 6.325 µM) | relative viability (Irinotecan + Vorinostat; first compound 20 µM) | relative viability (Irinotecan + Linsitinib; first compound 0.6325 µM) | relative viability (Irinotecan + Linsitinib; first compound 2 µM) | relative viability (Irinotecan + Linsitinib; first compound 6.325 µM) | relative viability (Irinotecan + Linsitinib; first compound 20 µM) |
| --- | --- | --- | --- | --- | --- | --- | --- | --- | --- | --- | --- | --- | --- | --- | --- | --- | --- |
| LC-2-ad | 0.82 | 0.75 | 0.796 | 0.822 | 0.795 | 0.407 | 0.371 | 0.316 | 0.251 | 0.312 | 0.373 | 0.283 | 0.181 | 0.48 | 0.237 | 0.179 | 0.184 |
| NCI-H2085 | 0.831 | 0.797 | 0.837 | 0.943 | 0.825 | 0.461 | 0.344 | 0.382 | 0.358 | 0.753 | 0.756 | 0.583 | 0.564 | 0.584 | 0.672 | 0.381 | 0.497 |

Reference: the supplement of paper PMC10307832
